Marks after values point to notes of the source that are not given here.
Tests used:
[1] = test system: E. coli; details: cited from earlier work
[2] = test system: Escherichia coli; assay: MIC and synergy checkerboard assay, agar dilution; type: cell-based
Procedure: (§1) The described novel combination was tested against both reference, and clinically resistant strains of S. aureus, E, coli, K. pneumoniae, and P. aeruginosa. Reference and clinical isolates were obtained from the American Type Culture Collection (ATCC, Manasas, VA.) and International Health Management Associates, Inc. (Schaumberg, IL). Bacteria were cultured in trypticase soy broth, concentrated 10-fold by centrifugation, and cryopreserved in the same medium containing 20% glycerol by holding at −80° C. Every two weeks a small amount of frozen culture was removed aseptically, and streaked on fresh trypticase soy agar plates to act as a working inoculum. Following overnight growth at about 37° C., the plates were wrapped in parafilm, and held at about 4° C. Bacteria (4-5 colonies) were then aseptically transferred into broth growth medium for assays as needed.
(§2) Minimum inhibitory concentration (MIC) assays were performed in a manner as described for the CLSI Agar dilution or broth microdilution assay guideline (see, Clinical Laboratory Standards Institute, 2009, Methods for Dilution Antimicrobial Susceptibility Tests for Bacteria That Grow Aerobically; Approved Standard, Eighth Edition, M07-A8, Vol. 29, No. 2). For example, known antibiotics or the compositions described herein were dissolved, serially diluted, and then added to tempered molten Mueller-Hinton Agar before pouring of plates; or were dissolved, and then serially diluted in 100 μL cation-adjusted Mueller-Hinton broth across the assay plate in the classical 2-fold geometric format. D-glucose-6-phosphate was included as a medium supplement in both agar, and broth at a concentration of 50 mg/L. Antibiotic concentrations for agar assay were at the final concentration. Antibiotic concentrations for broth microdilution in each well at this point were double what the final assay concentration would be. Bacterial inocula were prepared by swabbing several colonies from a fresh agar plate, and re-suspending the bacteria to a density that was the 0.5 McFarland turbidity standard, considered close or equivalent to 1×10^8 CFU/mL. For agar dilution, a steers replicator was utilized to deliver 1×10^4 CFU/spot. For broth microdilution, the bacterial inocula were diluted in the cation-adjusted Mueller-Hinton broth to 1×10^6 CFU/mL, and 100 μL was overlayered onto the wells containing a diluted antibiotic or a composition described. Following incubation as per the guideline, results were recorded as growth or no growth, and the lowest concentration of the antibiotic or the composition described where no growth was observed was declared the MIC.
(§3) To assay for synergy of antibacterial combinations, a recognized synergy checkerboard assay, adapted from the CLSI guideline microdilution assay, was utilized (see Eliopoulos, G. M., and Moellering, R. C, Jr., 1996. Antimicrobial Combinations, pg. 330-396. In: Lorian, V. (Ed.), Antibiotics in Laboratory Medicine, 4th Ed., Williams & Wilkins; Baltimore, MD). In the case of the agar dilution method, each antibiotic alone, or in combination was added to agar prior to plate pouring. For broth microdilution, the first compound (or antibiotic or agent) was diluted in cation-adjusted Mueller-Hinton broth across the plate along the horizontal axis with each well in a row containing 50 μL of an identical concentration of compound (or antibiotic). Along the vertical axis a dilution series of the second compound (or antibiotic) was dispensed. At this point the drug concentrations are four-fold of the final desired working concentration. […] Following incubation, wells with no growth are noted. […] FIC=(MIC-A combination/MIC-A alone)+(MIC-B combination/MIC-B alone).
(§4) In the above, FIC: Synergy=FIC<0.5; Additive=FIC>0.5-1; Indifferent=FIC>1-2; Antagonism=FIC>2-4.

[3] = test system: K. pneumonia; assay: MIC and synergy checkerboard assay, agar dilution; type: cell-based
Procedure: as §1, §2, §3, §4

[4] = test system: P. aeruginosa; assay: MIC and synergy checkerboard assay, agar dilution; type: cell-based
Procedure: as §1, §2, §3, §4

[5] = test system: P. mirabilis; assay: MIC and synergy checkerboard assay, broth microdilution (uUTI species); type: cell-based, Proteus mirabilis
Procedure: as §2
To assay for synergy of antibacterial combinations, a recognized synergy checkerboard assay, adapted from the CLSI guideline microdilution assay, was utilized (see Eliopoulos, G. M., and Moellering, R. C, Jr., 1996. Antimicrobial Combinations, pg. 330-396. In: Lorian, V. (Ed.), Antibiotics in Laboratory Medicine, 4th Ed., Williams & Wilkins; Baltimore, MD). In the case of the agar dilution method, each antibiotic alone, or in combination was added to agar prior to plate pouring. For broth microdilution, the first compound (or antibiotic or agent) was diluted in cation-adjusted Mueller-Hinton broth across the plate along the horizontal axis with each well in a row containing 50 μL of an identical concentration of compound (or antibiotic). Along the vertical axis a dilution series of the second compound (or antibiotic) was dispensed. At this point the drug concentrations are four-fold of the final desired working concentration. […] Following incubation, wells with no growth are noted. […]

[6] = test system: N. gonorrhoeae; assay: MIC and synergy checkerboard assay, agar dilution on GC agar; type: cell-based
Procedure: as §2, §3, §4
Synergy is also identified in TABLE 9 (utilizing the agar checkerboard assay) against N. gonorrhoeae. In these analyses, the agar dilution was performed utilizing GC agar supplemented with Isovitalex, and 50 mg/L of D-glucose-6-phosphate. […] MIC comparator data was performed using the following known antibiotics: Ceftriaxone, Azithromycin, Cefixime, Ciprofloxacin, Tetracycline, Pristinamycin, Solithromycin, and Delafloxacin. Pristinamycin was purified from capsules obtained in France; Solithromycin, and Delafloxacin were synthesized internally for comparison.

[7] = test system: Escherichia coli; assay: minimum bactericidal concentration (MBC) assay; type: cell-based
Procedure: Synergy was also assayed by both agar, and broth microdilution methods. Additional information gathered about the synergistic effect of the described composition as a combination therapy was evaluated by determining bacterial killing effect. This was performed as described above for the checkerboard synergy assay with the exception that the bacterial count in an assay well was determined by plating at the beginning of the experiment, and identifying at the end of incubation for an assay well where growth was inhibited. This has been adapted from both the broth microdilution, and the bactericidal assays (Clinical Laboratory Standards Institute (1999) Methods for Determining Bactericidal Activity of Antimicrobial Agents; Approved Guideline M26-A, Vol. 19, No. 18). […] The value derived was the reduction in bacterial numbers (viability) for the compounds when alone versus the described composition comprising the combined antibiotics.
As there is no published definition for bactericidal synergy, MIC metric was utilized.

C[C@@H]1O[C@@H]1P(=O)(O)O [Fosfomycin, cis-1,2-epoxypropyl phosphonic acid]
MIC [1]: 0.5 to 2 µg/mL
MIC (Combo as F/DP/SM; second compound as DP/SM) ([2]; Escherichia coli 846439): 64 µg/mL
MIC (Combo as F/DP/SM; second compound as DP/SM) ([2]; Escherichia coli 846446): 4 µg/mL
MIC (Combo as F/DP/SM; second compound as DP/SM) ([2]; Escherichia coli 846450): 32 µg/mL
MIC (Combo as F/DP/SM; second compound as DP/SM) ([2]; Escherichia coli 846455): 128* μg/ml
MIC (Combo as F/DP/SM; second compound as DP/SM) ([2]; Escherichia coli 847149): 128* μg/ml
MIC (Combo as F/DP/SM; second compound as DP/SM) ([2]; Escherichia coli 854535): 128* μg/ml
MIC (Combo as F/DP/SM; second compound as DP/SM) ([2]; Escherichia coli 854566): 128* μg/ml
MIC (Combo as F/DP/SM; second compound as DP/SM) ([2]; Escherichia coli 857021): 64 µg/mL
MIC (Combo as F/DP/SM; second compound as DP/SM) ([2]; Escherichia coli 863078): 128* μg/ml
MIC (Combo as F/DP/SM; second compound as DP/SM) ([2]; Escherichia coli 863686): 64 µg/mL
MIC (Combo as F/DP/SM; second compound as DP/SM) ([2]; Escherichia coli ATCC 25922): 16 µg/mL
MIC (Combo as F/DP/SM; second compound as DP/SM) ([3]; K. pneumonia 848788): 256* μg/ml
MIC (Combo as F/DP/SM; second compound as DP/SM) ([3]; K. pneumonia 857147): 32 µg/mL
MIC (Combo as F/DP/SM; second compound as DP/SM) ([3]; K. pneumonia 857187): 128* μg/ml
MIC (Combo as F/DP/SM; second compound as DP/SM) ([3]; K. pneumonia 868968): 256* μg/ml
MIC (Combo as F/DP/SM; second compound as DP/SM) ([3]; K. pneumonia 868972): 128* μg/ml
MIC (Combo as F/DP/SM; second compound as DP/SM) ([3]; K. pneumonia 869028): 256* μg/ml
MIC (Combo as F/DP/SM; second compound as DP/SM) ([3]; K. pneumonia 870964): 256* μg/ml
MIC (Combo as F/DP/SM; second compound as DP/SM) ([3]; K. pneumonia 875638): 64 µg/mL
MIC (Combo as F/DP/SM; second compound as DP/SM) ([3]; K. pneumonia 892483): 256* μg/ml
MIC (Combo as F/DP/SM; second compound as DP/SM) ([3]; K. pneumonia 926439): 128* μg/ml
MIC (Combo as F/DP/SM; second compound as DP/SM) ([4]; P. aeruginosa 826882): 128* μg/ml
MIC (Combo as F/DP/SM; second compound as DP/SM) ([4]; P. aeruginosa 880238): 128* μg/ml
MIC (Combo as F/DP/SM; second compound as DP/SM) ([4]; P. aeruginosa 889058): 128* μg/ml
MIC (Combo as F/DP/SM; second compound as DP/SM) ([4]; P. aeruginosa 906939): 128* μg/ml
MIC (Combo as F/DP/SM; second compound as DP/SM) ([4]; P. aeruginosa 914881): 128* μg/ml
MIC (Combo as F/DP/SM; second compound as DP/SM) ([4]; P. aeruginosa 924190): 256* μg/ml
MIC (Combo as F/DP/SM; second compound as DP/SM) ([4]; P. aeruginosa 926474): 64 µg/mL
MIC (Combo as F/DP/SM; second compound as DP/SM) ([4]; P. aeruginosa 945543): 128* μg/ml
MIC (Combo as F/DP/SM; second compound as DP/SM) ([4]; P. aeruginosa 945545): 128* μg/ml
MIC (Combo as F/DP/SM; second compound as DP/SM) ([4]; P. aeruginosa 945748): 128* μg/ml
MIC (Combo as F/DP/SM; second compound as DP/SM) ([4]; P. aeruginosa PAO1): 32 µg/mL
MIC (Combo as F/DP/SM; second compound as DP/SM) ([5]; P. mirabilis 1071120): 1 µg/mL
MIC (Combo as F/DP/SM; second compound as DP/SM) ([5]; P. mirabilis 1124256): 64 µg/mL
MIC (Combo as F/DP/SM; second compound as DP/SM) ([5]; P. mirabilis 1128681): 4 µg/mL
MIC (Combo as F/DP/SM; second compound as DP/SM) ([5]; P. mirabilis 1184042): 4 µg/mL
MIC (Combo as F/DP/SM; second compound as DP/SM) ([6]; N. gonorrhoeae 127781): 16 µg/mL
MIC (Combo as F/DP/SM; second compound as DP/SM) ([6]; N. gonorrhoeae 127782): 16 µg/mL
MIC (Combo as F/DP/SM; second compound as DP/SM) ([6]; N. gonorrhoeae 127783): 16 µg/mL
MIC (Combo as F/DP/SM; second compound as DP/SM) ([6]; N. gonorrhoeae 127786): 16 µg/mL
MIC (Combo as F/DP/SM; second compound as DP/SM) ([6]; N. gonorrhoeae 1117522): 16 µg/mL
MIC (Combo as F/DP/SM; second compound as DP/SM) ([6]; N. gonorrhoeae 1117523): 16 µg/mL
MIC (Combo as F/DP/SM; second compound as DP/SM) ([6]; N. gonorrhoeae 1117524): 8 µg/mL
MIC (Combo as F/DP/SM; second compound as DP/SM) ([6]; N. gonorrhoeae 1117525): 8 µg/mL
MIC (Combo as F/DP/SM; second compound as DP/SM) ([6]; N. gonorrhoeae 1117527): 8 µg/mL
MBC, lowest concentration providing a >3-log reduction within 24 hours (Combo as F/DP/SM; second compound as DP/SM) ([7]; Escherichia coli (854535)): 256 μg/ml
MBC, lowest concentration providing a >3-log reduction within 24 hours (Combo as F/DP/SM; second compound as DP/SM) ([7]; Escherichia coli (928017)): 256 μg/ml
MBC, lowest concentration providing a >3-log reduction within 24 hours (Combo as F/DP/SM; second compound as DP/SM) ([7]; Escherichia coli (ATCC 25922)): 32 μg/ml

Reference: patent US11925653B2, “Combination therapy effective against microorganisms, including drug resistant microorganisms” (Fleurir ABX LLC, priority 2021, dated 2024)
